# Reference: patent US20180021450A1, “ANTI-STAPHYLOCOCCUS AUREUS ANTIBODY RIFAMYCIN CONJUGATES AND USES THEREOF” (Genentech, Inc., priority 2014, published 2018)
# Columns and labels:
# [1] = test system: S. aureus (USA300) persister cells; assay: Killing of persister cells by free antibiotics; assay type: cell-based, Staphylococcus aureus; settings: ciprofloxacin-treated cultures, second antibiotic 1 ug/ml
# Description: Killing of persisters cells by free antibiotics: S. aureus (USA300) was taken from an overnight stationary phase culture, washed once in Tryptic Soy Broth (TSB) and then adjusted to a final concentration of 1×10^7 CFU/ml in a total volume of 10 mL of either TSB or TSB with ciprofloxicin (0.05 mM). Cultures were incubated with shaking at 37° C. for 6 hours and then the second antibiotic, either rifampicin (1 ug/ml) or another rifamycin-type antibiotic (1 ug/ml) was added. At the indicated times, samples were removed from each culture, washed once with PBS to remove the antibiotic and re-suspended in PBS. The total number of surviving bacteria was determined by plating serial dilutions of the bacteria on agar plates. At the final time point the remainder of each culture was collected and plated.
# [2] = test system: S. aureus (USA300), stationary phase; assay: Time of kill for free antibiotics on non-replicating bacteria; assay type: cell-based, Staphylococcus aureus; settings: 1×10^-6M antibiotic, overnight incubation in PBS at 37° C.
# Description: Time of kill for free antibiotics on non-replicating bacteria: S. aureus (USA300) was taken from an overnight stationary phase culture, washed once in Phosphate Buffered Saline (PBS) and suspended at 1×10^7 CFU/mL in PBS with no antibiotic or with 1×10^-6M antibiotic in a 10 mL volume in 50 mL polypropylene centrifuge tubes. The bacteria were incubated at 37° C. overnight with shaking. At each time point, three 1 mL samples were removed from each culture and centrifuged to collect the bacteria. Bacteria were washed once with PBS to remove the antibiotic and the total number of surviving bacteria was determined by plating serial dilutions of the bacteria on agar plates.
# MRSA was collected from a stationary phase culture and suspended in phosphate buffered saline containing no antibiotic or 1×10^-6M of rifampin or the rifamycin-derivative (Rifalog) and incubated at 37° C. At the indicated times, a sample of the culture was collected and centrifuged to remove the antibiotic and the total number of surviving bacteria was determined by plating.
# [3] = test system: MRSA (USA300 NRS384 strain); assay: Murine intravenous infection model (CB17.SCID mice reconstituted with IGIV); assay type: in vivo, Staphylococcus aureus; settings: single dose 24h post infection; free antibiotic at equal molar concentration
# Description: S. aureus is a common colonizer of human skin and mucosal surfaces. […] Mouse serum has no appreciable levels of anti-S aureus antibody. To determine whether endogenous anti-WTA antibodies found in normal human serum might compete for binding with the AAC, CB17.SCID mice (Charles River Laboratories, Hollister, Calif.) were reconstituted with GammaGard S/D IGIV Immune Globulin (ASD Healthcare, Brooks Ky.) using a dosing regimen optimized to achieve constant serum levels of at least 10 mg/mL of human IgG in serum. IGIV was administered with an initial intravenous dose of 30 mg per mouse followed by a second dose of 15 mg/mouse by intraperitoneal (i.p.) injection after 6 hours, and subsequent daily dosings of 15 mg per mouse by intraperitoneal injection for 3 consecutive days. These mice were equally susceptible to infection with MRSA compared to untreated controls.
# Mice (n=8 for each of antibody or AAC) were infected 4 hours after the first dose of IGIV with 1×10^7 CFU of MRSA (USA300 NRS384 strain) diluted in phosphate buffered saline by intravenous injection. Infected mice were treated with 50 mg/kg of S4497 naked antibody or S4497 AAC from Table 3. […] The total number of bacteria recovered per organ was determined by plating serial dilutions of the tissue homogenate in PBS 0.05% Tween on Tryptic Soy Agar with 5% defibrinated sheep blood.
smiles,measurement,setting,value
"CO[C@H]1/C=C/O[C@@]2(C)Oc3c(C)c(O)c4c(=O)c(c5oc6cc(N7CCC(N(C)C)CC7)cc(O)c6nc-5c4c3C2=O)NC(=O)/C(C)=C\C=C\[C@H](C)[C@H](O)[C@@H](C)[C@@H](O)[C@@H](C)[C@H](OC(C)=O)[C@@H]1C [dimethylpipBOR, dimethylpiperidyl benzoxazino rifamycin]",effect on viability of persister cells,[1],eradication of persister cells below the limit of detection
same,"decrease in the number of viable, but non-replicating, bacteria",[2],"more than 1,000 fold"
same,efficacy on bacterial counts in infected organs,[3],not efficacicou
